25 compounds from patent US20210070747A1, “2(1H)-QUINOLINONE DERIVATIVE” (priority 2017, published 2021) can be followed below.

Converted amounts (≈) assume the structure as drawn. Counter-ions that a name gives are not always drawn. Like-named read-outs stand apart in the source and are kept apart here.

One assay addresses T1, E. coli DNA gyrase (Escherichia coli, UniProt P0AES6).
T1 construct: made in house; host or cells: E. coli BL21 (DE3)
In words: Test for evaluating the activity of inhibiting E. coli DNA gyrase enzyme (Method 1, supercoiling, Inspiralis enzyme). The assay is classed as biochemical. As for the experimental part: Test Example 1-1 Test for Evaluating the Activity of Inhibiting E. coli DNA Gyrase Enzyme (Method 1)
The enzymatic activity of E. coli DNA gyrase was measured by a method comprising reacting DNA gyrase and its substrate, relaxed pBR322 (Inspiralis), in the presence of ATP and detecting the post-reaction supercoiled pBR322/relaxed pBR322 ratio with H19 (Profoldin).
Specifically, to 1 ng/μL of relaxed pBR322, E. coli DNA gyrase enzyme (Inspiralis) was added at a final concentration of 0.006 U/μL and the mixture was incubated for 60 minutes at room temperature. This reaction was carried out in 20 mmol/L tris-HCl buffered solution (pH 8.0) comprising 0.5 mmol/L ATP, 0.005% bridge 35, 35 mmol/L ammonium acetate, 8 mmol/L magnesium chloride, 4.6% glycerol, and 1 mmol/L dithiothreitol. To the reaction mixture, H19 was added to bring the reaction to an end; thereafter, the supercoiled pBR322/relaxed pBR322 ratio was detected at excitation wavelength/emission wavelength=485 nm/535 nm. An inhibition curve was obtained by allowing the analyte compound to be present at varying concentrations during the reaction described above. […] The test results of interest are shown in [Table 20-1] and [Table 20-2].

A further assay has as its system E. Coli ATCC 25922. The assay is described as follows: Test for evaluating antibacterial activity (E. coli), broth microdilution MIC. The assay is classed as cell-based. The note with it: Escherichia coli, ATCC25922; 35° C., 18 hours, cation-adjusted Mueller-Hinton medium. A digest of the protocol:
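Broth microdilution per modified CLSI method in cation-adjusted Mueller-Hinton medium. Inoculum from overnight heart infusion agar growth, McFarland 0.5 suspension diluted 10-fold; incubation 35° C for 18 hours. MIC taken as lowest drug concentration with no visible growth.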
(In general: Dilution methods test growth across graded concentrations, often in twofold steps.)

The test system of assay [1] is N. gonorrhoeae ATCC 49226. The assay is described as follows: Test for evaluating antibacterial activity (N. gonorrhoeae), broth microdilution MIC. The class given is cell-based. The note with it: Neisseria gonorrhoeae, ATCC49226; 35° C., 24 hours, gonococcal broth. A digest of the protocol: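 Broth microdilution in gonococcal broth with 1% supplement C, inoculum from overnight chocolate II agar culture at McFarland 0.5 diluted 5-fold.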

Setting [2] is: Method 1, read-out: E. Coli Gyrase supercoiling IC50.

A word on the IC50: it is the concentration at which inhibition is half-maximal. One may read the MIC as the lowest concentration found to suppress growth. Compound `CNc1cc(F)cc2cc(C(=O)Nc3ccc(C(=O)O)c(OCCCN)c3)c(=O)[nH]c12.O=CO` [Example 62, 2-(3-Aminopropoxy)-4-[[6-fluoro-8-(methylamino)-2-oxo-1,2-dihydroquinoline-3-carbonyl]amino]benzoic acid-formate] displayed an IC50 on E. coli DNA gyrase of 0.92 nM. In addition, the figures for the MIC (with E. Coli ATCC 25922; in assay [1]) were > 16 µg/mL and 2 µg/mL, respectively.
As to `CNc1cc(F)cc2cc(C(=O)Nc3ccccc3)c(=O)[nH]c12` [Example 76, 6-fluoro-8-(methylamino)-2-oxo-N-phenyl-1,2-dihydroquinoline-3-carboxamide], the concentration for half-maximal inhibition (IC50) on E. coli DNA gyrase (setting [2]) worked out at 249 nM. Also, the MIC in the assay with E. Coli ATCC 25922 is > 32 µg/mL; in assay [1], 0.25 µg/mL (≈ 0.803 µM).
The like results for `CNc1nccc2cc(C(=O)Nc3ccc(C(=O)O)cc3)c(=O)[nH]c12` [Example 17, 4-[[8-(Methylamino)-2-oxo-1,2-dihydro-1,7-naphthyridine-3-carbonyl]amino]benzoic Acid] were, in that order, 293 nM, > 64 µg/mL and > 1 µg/mL.
Consider `CNc1cc(F)cc2cc(C(=O)Nc3ccc(C(=O)N(C)CCN4CCOCC4)cc3)c(=O)[nH]c12` [Example 67, 6-fluoro-8-(methylamino)-N-(4-{methyl[2-(morpholine-4-yl)ethyl]carbamoyl}phenyl)-2-oxo-1,2-dihydroquinoline-3-carboxamide], for which, at E. coli DNA gyrase (setting [2]), the half-inhibitory concentration (IC50) was 6.36 nM. Moreover, in the assay on E. Coli ATCC 25922, the minimum inhibitory concentration (MIC) is > 16 µg/mL.
The like results for `CNc1cccc2cc(C(=O)Nc3ccc(C(=O)NCCN4CCOCC4)cc3)c(=O)[nH]c12` [Example 26, 8-(methylamino)-N-(4-{[2-(morpholine-4-yl)ethyl]carbamoyl}phenyl)-2-oxo-1,2-dihydroquinoline-3-carboxamide] were, in that order, 17.8 nM and > 32 µg/mL.
The like results for `CNc1cccc2cc(C(=O)Nc3ccc(C(=O)NCCC[C@H](N)C(=O)O)cc3)c(=O)[nH]c12` [Example 49, N5-(4-{[8-(methylamino)-2-oxo-1,2-dihydroquinoline-3-carbonyl]amino}benzoyl)-L-ornithine] were, in that order, 20.4 nM and > 8 µg/mL.
`CNc1cccc2cc(C(=O)Nc3ccc(C(=O)NCC4CCNCC4)cc3)c(=O)[nH]c12.O=CO` [Example 47, 8-(methylamino)-2-oxo-N-(4-{[(piperidine-4-yl)methyl]carbamoyl}phenyl)-1,2-dihydroquinoline-3-carboxamide-formate] showed an IC50 at E. coli DNA gyrase of 10.7 nM. Moreover, in the assay with E. Coli ATCC 25922, the minimal inhibitory concentration (MIC) was > 32 µg/mL.
Regarding `CNc1cc(F)cc2cc(C(=O)Nc3ccc(C(=O)O)cc3CNCCO)c(=O)[nH]c12` [Example 74, 4-{[6-fluoro-8-(methylamino)-2-oxo-1,2-dihydroquinoline-3-catbonyl]amino}-3-{[(2-hydroxyethyl)amino]methyl} benzoic acid-hydrochloride], the half-maximal inhibitory concentration (IC50) on E. coli DNA gyrase (setting [2]) turned out to be 129 nM. Further, in the assay on E. Coli ATCC 25922, the minimal inhibitory concentration (MIC) is > 64 µg/mL.
The like results for `CNc1cccc2cc(C(=O)Nc3cnc(NC(=O)OC(C)(C)C)s3)c(=O)[nH]c12` [Example 24, tert-butyl(5-{[8-(methylamino)-2-oxo-1,2-dihydroquinoline-3-carbonyl]amino}-1,3-thiazole-2-yl)carbamate] were, in that order, 641 nM and > 32 µg/mL.
The like results for `CNc1cc(F)cc2cc(C(=O)Nc3cnccc3C)c(=O)[nH]c12` [Example 73, 6-fluoro-8-(methylamino)-N-(4-methylpyridine-3-yl)-2-oxo-1,2-dihydroquinoline-3-carboxamide] were, in that order, 23 nM and > 8 µg/mL.
The like results for `CNc1cccc2cc(C(=O)NC3CCN(c4ncc(C(=O)O)s4)C3)c(=O)[nH]c12` (centres unmarked) [Example 9, 2-(3-{[8-(methylamino)-2-oxo-1,2-dihydroquinoline-3-carbonyl]amino}pyrrolidine-1-yl)-1,3-thiazole-5-carboxylic acid] were, in that order, 51.7 nM and > 64 µg/mL.
`CNc1cccc2cc(C(=O)NCc3csc(N)n3)c(=O)[nH]c12.Cl` [Example 31, N-[(2-amino-1,3-thiazole-4-yl)methyl]-8-(methylamino)-2-oxo-1,2-dihydroquinoline-3-carboxamide-hydrochloride] had an IC50 at E. coli DNA gyrase of 321 nM. In addition, the minimal inhibitory concentration (MIC) against E. Coli ATCC 25922 is > 16 µg/mL.
As to `CNc1cccc2cc(C(=O)NC3CN(c4ncc(C(=O)O)s4)C3)c(=O)[nH]c12` [Example 10, 2-(3-{[8-(methylamino)-2-oxo-1,2-dihydroquinoline-3-carbonyl]amino}azetidine-1-yl)-1,3-thiazole-5-carboxylic acid], the IC50 on E. coli DNA gyrase (setting [2]) was 459 nM. Further, the minimum inhibitory concentration (MIC) against E. Coli ATCC 25922 was > 64 µg/mL.
In the same order, the values of `CNc1cc(F)cc2cc(C(=O)Nc3cnc(C(=O)NCCO)nc3)c(=O)[nH]c12` [Example 71, 6-Fluoro-N-[2-[(2-hydroxyethyl)carbamoyl]pyrimidin-5-yl]-8-(methylamino)-2-oxo-1,2-dihydroquinoline-3-carboxamide] are 0.88 nM and > 8 µg/mL.
With `CNc1cccc2cc(C(=O)Nc3cnc(N)s3)c(=O)[nH]c12.Cl` [Example 25, N-(2-Amino-1,3-thiazol-5-yl)-8-(methylamino)-2-oxo-1,2-dihydroquinoline-3-carboxamide-hydrochloride], the midpoint of inhibition against E. coli DNA gyrase, the IC50, lay at 65.4 nM. The minimal inhibitory concentration (MIC) in the assay on E. Coli ATCC 25922 is > 16 µg/mL.
In the same order, the values of `CNc1cc(F)cc2cc(C(=O)Nc3cnc(N4CCNCC4)nc3)c(=O)[nH]c12.Cl` [Example 55, 6-Fluoro-8-(methylamino)-2-oxo-N-[2-(piperazin-1-yl)pyrimidin-5-yl]-1,2-dihydroquinoline-3-carboxamide-hydrochloride] are 14.7 nM and > 16 µg/mL.
For the compound `CNc1cccc2cc(C(=O)NCCc3cccnc3)c(=O)[nH]c12` [Example 30, 8-(methylamino)-2-oxo-N-[2-(pyridine-3-yl)ethyl]-1,2-dihydroquinoline-3-carboxamide], the IC50 at E. coli DNA gyrase (setting [2]) was 216 nM. Besides, the MIC in the assay with E. Coli ATCC 25922 is > 16 µg/mL.
Take `CNc1cc(F)cc2cc(C(=O)Nc3ccc(C(=O)NCCN4CCOCC4)cc3CN(C)C3CCCCC3)c(=O)[nH]c12` [Example 75, N-(2-{[cyclohexyl(methyl)amino]methyl}-4-{[2-(morpholine-4-yl)ethyl]carbamoyl}phenyl)-6-fluoro-8-(methylamino)-2-oxo-1,2-dihydroquinoline-3-carboxamide]: on E. coli DNA gyrase (setting [2]), the IC50 stood at 0.25 nM. The MIC with E. Coli ATCC 25922 is 8 µg/mL (≈ 13.5 µM).
The like results for `CNc1cc(F)cc2cc(C(=O)NCCc3cccnc3)c(=O)[nH]c12` [Example 64, 6-fluoro-8-(methylamino)-2-oxo-N-[2-(pyridine-3-yl)ethyl]-1,2-dihydroquinoline-3-carboxamide] were, in that order, 44.7 nM and > 8 µg/mL.
In the same order, the values of `CNc1cccc2cc(C(=O)Nc3ccc(C(=O)N4CCOCC4)cc3)c(=O)[nH]c12` [Example 43, 8-(methylamino)-N-[4-(morpholine-4-catbonyl)phenyl]-2-oxo-1,2-dihydroquinoline-3-carboxamide] are 176 nM and > 32 µg/mL.
In the same order, the values of `CNc1cccc2cc(C(=O)Nc3cccnc3)c(=O)[nH]c12` [Example 15, 8-(methylamino)-2-oxo-N-(pyridine-3-yl)-1,2-dihydroquinoline-3-carboxamide] are 35.9 nM and > 64 µg/mL.
In the case of `CNc1cc(F)cc2cc(C(=O)Nc3ccc(C(=O)NCCN)cc3)c(=O)[nH]c12.Cl` [Example 68, N-(4-[(2-aminoethyl)carbamoyl]phenyl}-6-fluoro-8-(methylamino)-2-oxo-1,2-dihydroquinoline-3-carboxamide-hydrochloride], on E. coli DNA gyrase, the IC50 was 9.4 nM. Further, in the assay on E. Coli ATCC 25922, the MIC was > 8 µg/mL.
The like results for `CNc1cc(F)cc2cc(C(=O)Nc3cnc(C(=O)OC)nc3)c(=O)[nH]c12` [Example 63, methyl 5-{[6-fluoro-8-(methylamino)-2-oxo-1,2-dihydroquinoline-3-carbonyl]amino}pyrimidine-2-carboxylate] were, in that order, 1.44 nM and > 16 µg/mL.
Regarding `CNc1cc(F)cc2cc(C(=O)Nc3cnc(OCCN4CCOCC4)nc3)c(=O)[nH]c12` [Example 80, 6-fluoro-8-(methylamino)-N-{2-[2-(morpholine-4-yl)ethoxy]pyrimidine-5-yl}-2-oxo-1,2-dihydroquinoline-3-carboxamide], the half-inhibitory concentration (IC50) on E. coli DNA gyrase (setting [2]) amounted to 2.5 nM. Besides, the MIC against E. Coli ATCC 25922 was > 16 µg/mL.
For `CNc1cccc2cc(C(=O)NCc3noc(=O)[nH]3)c(=O)[nH]c12` [Example 14, 8-(methylamino)-2-oxo-N-[(5-oxo-4,5-dihydro-1,2,4-oxadiazole-3-yl)methyl]-1,2-dihydroquinoline-3-carboxamide], the IC50 on E. coli DNA gyrase (setting [2]) was 35500 nM. In addition, the MIC in assay [1] was > 4 µg/mL.
